Patent US10206916B2, “Cabozantinib salts and their use as anti-cancer agents” (Sandoz AG, priority 2015, dated 2019)
Blank lines part the entries; values can stand above or below the molecule they belong to.

Assays:
[1] = cited from earlier work
[2] = Thermogravimetric/differential thermal analysis (TG/DTA); format: physicochemical
Procedure: B) Organic Solvent Content: Thermogravimetric Analysis (TGA) Approximately, 5-10 mg of material was accurately weighed into an open aluminium pan and loaded into a simultaneous thermogravimetric/differential thermal analyser (TG/DTA) and held at room temperature. The sample was then heated at a rate of 10° C./min from 25° C. to 300° C. during which time the change in sample weight was recorded along with any differential thermal events (DTA). Nitrogen was used as the purge gas, at a flow rate of 100 cm^3/min.

[3] = reported in WO2010/083414; cited from earlier work
[4] = Dynamic vapour sorption (DVS) with post-DVS XRPD; format: physicochemical; details: for water up take (weight gain) by DVS: between 20% and 70% RH, ca. 25° C.; for hygroscopicity by DVS: 20% to 70% RH, non-hygroscopic = weight gain of less than 2 weight-%; for Post-DVS XRPD analysis: after DVS sorption/desorption cycle; for hygroscopicity compared with cabozantinib malate: based on DVS isotherm
Procedure: XRPD analysis was carried out on a Siemens D5000 diffractometer, scanning the samples between 3 and 50 or 30°2-theta. For samples of less than 100 mg, 10-20 mg of material was gently compressed onto a glass disc inserted into an XRPD sample holder. For samples of more than 100 mg, ca. 100 mg of material was gently compressed into a plastic XRPD sample holder to ensure a smooth sample surface, just above the level of the sample holder. The sample was then loaded into the diffractometer running in reflection mode and analyzed using the following experimental conditions. C) Water Content: Dynamic Vapour Sorption (DVS) Approximately 10-20 mg of sample was placed into a vapour sorption balance pan and loaded into a DVS-1 dynamic vapour sorption balance by Surface Measurement Systems. The sample was subjected to a ramping profile from 20-90% relative humidity (RH) at 10% increments, maintaining the sample at each step until a stable weight had been achieved (99.5% step completion). After completion of the sorption cycle, the sample was dried using the same procedure, but all the way down to 0% RH and finally taken back to the starting point of 20% RH. The weight change during the sorption/desorption cycles were plotted, allowing for the hygroscopic nature of the sample to be determined.

[5] = Aqueous solubility measurement (slurry in deionized water, HPLC analysis); format: physicochemical
Procedure: HPLC analysis was performed according to the following conditions: • Instrument: Agilent 1100 • Column: Grace Smart RP 185μ 150×4.6 mm • Column Temperature: 30° C. UV wavelength: 249 nm • Injection Volume: 10 μl • Flow Rate: 1.2 ml/min • Mobile Phase A: 0.1% Phosphoric acid • Mobile Phase B: 0.1% Phosphoric acid in acetonitrile • Gradient program: H) Aqueous Solubility Measurements Each salt was individually slurried in deionized water and subjected to shaking for ca. 24 h at ambient temperature (ca. 22° C.). The resulting saturated solutions were filtered and analyzed by HPLC analysis. XRPD analysis was carried out on any solid retained after the solubility experiment.

[6] = listed as acetate salt, acetate
[7] = listed as cabozantinib succinate Form A, succinate
[8] = listed as crystalline succinate salt of cabozantinib, succinate

- TG/DTA weight loss corresponding to the endotherm in DTA trace at ca. 178° C. ([2]; at ca. 178° C.): C. and 1% loss
- TG/DTA weight loss below ca. 178° C. ([2]; below ca. 178° C.): 1.2 weight-% loss
- weight gain relative to cabozantinib succinate Form A ([4]; DVS, 20 to 70% RH): 10 fold
- water up take (weight gain) by DVS [4]: 0.3 weight-%
- water up take (weight gain) by DVS ([4]; listed as L-malate): about 0.3 weight-%
- water up take (weight gain) by DVS ([4]; listed as cabozantinib malate): about 0.3 weight-%
SMILES: COc1cc2nccc(Oc3ccc(NC(=O)C4(C(=O)Nc5ccc(F)cc5)CC4)cc3)c2cc1OC [(L)-malate, reference compound]
- solubility compared with cabozantinib free base [1]: enhanced solubility
- hygroscopicity as reported [3]: non-hygroscopic

- hygroscopicity by DVS [4]: non-hygroscopic
- Post-DVS XRPD analysis [4, 6]: remained crystalline
- hygroscopicity compared with cabozantinib malate [4]: less hygroscopic
- water up take (weight gain) by DVS [4, 6]: ~0.1 weight-%
SMILES: CC(=O)O.COc1cc2nccc(Oc3ccc(NC(=O)C4(C(=O)Nc5ccc(F)cc5)CC4)cc3)c2cc1OC [Form A-1, N-{4-[(6,7-dimethoxy-4-quinolinyl)oxy]phenyl}-N′-(4-fluorophenyl)-1,1-cyclopropanedicarboxamide acetate]
- Post-DVS XRPD analysis ([4]; acetate): remained crystalline and consistent with the input form

- solubility compared to cabozantinib malate ([5]; comparison in words, no malate value printed): improved solubility
- solid form after the solubility experiment (XRPD) ([5]; solid retained after solubility experiment): consistent with the input succinate salt
- solubility ([5]; thermodynamic from solid, deionized water, shaking ca. 24 h, ambient temperature (ca. 22° C.), HPLC analysis): 164 µg/mL
- TG/DTA weight loss corresponding to the endotherm in the DTA trace at ca. 173° C. ([2]; heating rate 10° C./min, at ca. 173° C., listed as cabozantinib succinate Form A, succinate): ~1 weight-%
- TG/DTA weight loss below ca. 173° C. ([2]; heating rate 10° C./min, below ca. 173° C., listed as cabozantinib succinate Form A, succinate): < 0.6 weight-%
- hygroscopicity by DVS [4]: non-hygroscopic
- hygroscopicity compared with cabozantinib malate [4, 7]: less hygroscopic
- hygroscopicity compared with cabozantinib malate ([4]; succinate): lower hygroscopicity
- water up take (weight gain) by DVS [4, 7]: about 0.03 weight-%
- water up take (weight gain) by DVS [4, 8]: ca. 0.03 weight-%
- water up take (weight gain) by DVS ([4]; succinate): 0.03 weight-%
SMILES: COc1cc2nccc(Oc3ccc(NC(=O)C4(C(=O)Nc5ccc(F)cc5)CC4)cc3)c2cc1OC.O=C(O)CCC(=O)O [Form A, N-{4-[(6,7-dimethoxy-4-quinolinyl)oxy]phenyl}-N′-(4-fluorophenyl)-1,1-cyclopropanedicarboxamide succinate]
- Post-DVS XRPD analysis [4, 7]: remained crystalline and consistent with the input form
- Post-DVS XRPD analysis [4, 8]: remained crystalline and was consistent with the input form

SMILES: COc1cc2nccc(Oc3ccc(NC(=O)C4(C(=O)Nc5ccc(F)cc5)CC4)cc3)c2cc1OC [Cabozantinib, N-{4-[(6,7-dimethoxy-4-quinolinyl)oxy]phenyl}-N′-(4-fluorophenyl)-1,1-cyclopropanedicarboxamide]
- solubility (BCS classification) [1]: low solubility
